Laboratory results published in article PMC11693508, “Pharmacokinetics, bioavailability, and tissue distribution of MRTX1133 in rats using UHPLC-MS/MS” (Frontiers in Pharmacology, 2024).

Assay: Stability of MRTX1133 in rat plasma and tissue homogenates under different storage conditions
Assay type: physicochemical
Conditions: for Post-processing stability Accuracy / Short-term stability Accuracy / −80°C for 14 days Accuracy / Freeze-thaw stability Accuracy: n = 6; for −80°C for 14 days Accuracy: long-term; for Freeze-thaw stability Accuracy: three freeze-thaw cycles −20°C to 25°C
Procedure: The stability of MRTX1133 was determined by analyzing LQ, MQ, and HQ samples under different storage conditions, which included three freeze-thaw stability (from −20°C to 25°C), long-term stability (−80°C for 14 days), short-term stability (25°C for 6 h), and post-processing stability (4°C for 24 h). The samples concentrations were compared with the freshly prepared QC samples and were considered stable if the accuracy were 85%–115% and RSD were ±15%.

[1] = rat intestine homogenate, 4.22 ng/mL
[2] = rat intestine homogenate, 21.12 ng/mL
[3] = rat kidney homogenate, 21.12 ng/mL
[4] = rat kidney homogenate, 211.20 ng/mL
[5] = rat kidney homogenate, 1,056.00 ng/mL
[6] = rat liver homogenate, 21.12 ng/mL
[7] = rat liver homogenate, 211.20 ng/mL
[8] = rat liver homogenate, 2,112.00 ng/mL

stability in plasma samples and homogenates (25°C for 6 h, 4°C for 24 h, three freeze-thaw cycles (−20°C to 25°C), −80°C for 14 days): stable
Post-processing stability Accuracy (rat intestine homogenate, 4.22 ng/mL, 4°C for 24 h): 98.23%
Short-term stability Accuracy (rat intestine homogenate, 4.22 ng/mL, 25°C for 6 h): 95.41%
−80°C for 14 days Accuracy [1]: 93.31%
Freeze-thaw stability Accuracy [1]: 95.83%
Post-processing stability Accuracy (rat intestine homogenate, 21.12 ng/mL, 4°C for 24 h): 98.14%
Short-term stability Accuracy (rat intestine homogenate, 21.12 ng/mL, 25°C for 6 h): 96.69%
−80°C for 14 days Accuracy [2]: 92.54%
Freeze-thaw stability Accuracy [2]: 94.42%
Short-term stability Accuracy (rat intestine homogenate, 105.60 ng/mL, 25°C for 6 h): 94.97%
−80°C for 14 days Accuracy (rat intestine homogenate, 105.60 ng/mL): 90.35%
Post-processing stability Accuracy (rat kidney homogenate, 21.12 ng/mL, 4°C for 24 h): 101.18%
Short-term stability Accuracy (rat kidney homogenate, 21.12 ng/mL, 25°C for 6 h): 103.01%
−80°C for 14 days Accuracy [3]: 95.23%
Freeze-thaw stability Accuracy [3]: 95.07%
Post-processing stability Accuracy (rat kidney homogenate, 211.20 ng/mL, 4°C for 24 h): 98.13%
Short-term stability Accuracy (rat kidney homogenate, 211.20 ng/mL, 25°C for 6 h): 97.29%
−80°C for 14 days Accuracy [4]: 92.7%
Freeze-thaw stability Accuracy [4]: 95.58%
Post-processing stability Accuracy (rat kidney homogenate, 1,056.00 ng/mL, 4°C for 24 h): 95.47%
Short-term stability Accuracy (rat kidney homogenate, 1,056.00 ng/mL, 25°C for 6 h): 97.04%
−80°C for 14 days Accuracy [5]: 91.34%
Freeze-thaw stability Accuracy [5]: 93.72%
Post-processing stability Accuracy (rat liver homogenate, 21.12 ng/mL, 4°C for 24 h): 104.23%
Short-term stability Accuracy (rat liver homogenate, 21.12 ng/mL, 25°C for 6 h): 101.44%
−80°C for 14 days Accuracy [6]: 96.4%
Freeze-thaw stability Accuracy [6]: 97.72%
Post-processing stability Accuracy (rat liver homogenate, 211.20 ng/mL, 4°C for 24 h): 105.35%
Short-term stability Accuracy (rat liver homogenate, 211.20 ng/mL, 25°C for 6 h): 105.89%
−80°C for 14 days Accuracy [7]: 94.88%
Freeze-thaw stability Accuracy [7]: 96.69%
Post-processing stability Accuracy (rat liver homogenate, 2,112.00 ng/mL, 4°C for 24 h): 97.47%
Short-term stability Accuracy (rat liver homogenate, 2,112.00 ng/mL, 25°C for 6 h): 98.17%
−80°C for 14 days Accuracy [8]: 93.33%
Freeze-thaw stability Accuracy [8]: 92.38%
Post-processing stability Accuracy (rat plasma, 4.22 ng/mL, 4°C for 24 h): 107.16%
Short-term stability Accuracy (rat plasma, 4.22 ng/mL, 25°C for 6 h): 108.92%
−80°C for 14 days Accuracy (rat plasma, 4.22 ng/mL): 103.66%
Freeze-thaw stability Accuracy (rat plasma, 4.22 ng/mL): 101.64%
Post-processing stability Accuracy (rat plasma, 105.60 ng/mL, 4°C for 24 h): 94.98%
Short-term stability Accuracy (rat plasma, 105.60 ng/mL, 25°C for 6 h): 95.35%
−80°C for 14 days Accuracy (rat plasma, 105.60 ng/mL): 90.18%
Freeze-thaw stability Accuracy (rat plasma, 105.60 ng/mL): 92.05%
Post-processing stability Accuracy (rat plasma, 1,056.00 ng/mL, 4°C for 24 h): 92.05%
Short-term stability Accuracy (rat plasma, 1,056.00 ng/mL, 25°C for 6 h): 92.49%
−80°C for 14 days Accuracy (rat plasma, 1,056.00 ng/mL): 90.23%
Freeze-thaw stability Accuracy (rat plasma, 1,056.00 ng/mL): 90.04%
Compound: C#Cc1c(F)ccc2cc(O)cc(-c3ncc4c(N5CC6CCC(C5)N6)nc(OC[C@@]56CCCN5C[C@H](F)C6)nc4c3F)c12 [MRTX1133]
